# In article PMC4533002 (2015):
# Legend:
# [1] = system: F-St1A/St2-AmpA split adenosine aptamer with primer regions (DNA, aptamer) ACCTGGGGGAGTA/CCAACCGTGAAAAGATGATGGTGCGGAGGAAGGTCTTAGGTCTATCCCGATGCC; assay: fluorescence anisotropy; conditions: 50 mM NaCl, 10 mM MgCl2, 10 mM Tris pH 7.5, 25 °C, 10 nM F-St1A, 400 nM St2-AmpA
# [2] = system: F-St1A/St2-AmpA-Rev primA duplex split adenosine aptamer (DNA, aptamer) ACCTGGGGGAGTA/CCAACCGTGAAAAGATGATGGTGCGGAGGAAGGTCTTAGGTCTATCCCGATGCC/GGCATCGGGATAGACCTAAG; assay: fluorescence anisotropy; conditions: 50 mM NaCl, 10 mM MgCl2, 10 mM Tris pH 7.5, 25 °C, 10 nM F-St1A, 400 nM St2-AmpA-Rev primA duplex
# [3] = system: St1-CholA/F-St2-AmpA/Rev primA (system A) (DNA, aptamer) ACCTGGGGGAGTA/CCAACCGTGAAAAGATGATGGTGCGGAGGAAGGTCTTAGGTCTATCCCGATGCC/GGCATCGGGATAGACCTAAG; assay: capillary electrophoresis with LIF (MEKC); conditions: 50 mM NaCl, 10 mM MgCl2 (incubation); 25 mM NaCl (running buffer); Tris pH 7.5 (incubation), pH 7.8 (running), 0.5 mM Brij 35, 20 °C; 500-2000 μM adenosine
# [4] = system: F-St1A/St2 split adenosine aptamer (initial sandwich) (DNA, aptamer) ACCTGGGGGAGTA/TGCGGAGGAAGGT; assay: fluorescence anisotropy; conditions: 50 mM NaCl, 10 mM MgCl2, 10 mM Tris pH 7.5, 25 °C, 10 nM F-St1A, 400 nM St2
# [5] = system: St1-CholB/St2-AmpB/Rev primB (system B) (DNA, aptamer) ATACCTGGGGGAGTATATAAT/CACACAGGAAACAGCGTATGACAATTATAGCGGAGGAAGGTATCCGTAGCCCTATCTGGATTGC/GCAATCCAGATAGGGCTACGG; assay: capillary electrophoresis isolation with real-time PCR; conditions: 25 mM NaCl, 5 mM MgCl2; 20 mM Tris pH 7.5, 0.5 mM Brij 35, 20 °C; adenosine up to 50 μM
compound,measurement,setting,value
Nc1ncnc2c1ncn2[C@@H]1O[C@H](CO)[C@@H](O)[C@H]1O,apparent Kd,[1],> 500 µM
same,apparent Kd,[2],~ 90 μM
same,binding,[3],yes
same,apparent Kd,[4],~ 90 μM
same,binding,[5],yes
